Assay results taken from patent US20200316207A1, “POLYMERIC BILE ACID NANOPARTICLES AS ANTI-INFLAMMATORY AGENTS” (Yale University, priority 2015, published 2020).
Values belong to the compound of their own block, whether it stands above or below them.

How the values were obtained:
[1] = Loading of dye/agents in NPs; assay type: physicochemical
Experimental: Polymer Synthesis and Nanoparticle (NP) formulation. […] Chloroform was utilized as the mobile phase with a flow rate of 1 mL/min and both the columns and RI detector were maintained at 40° C. MW characteristics were determined relative to a calibration curve generated from narrow polydispersity polystyrene standards (Aldrich Chemical). […] Polymers or the mixture (100 mg) was dissolved in 2 mL chloroform containing DIR (1 mg), coumarin 6 (10 mg), RAPA (10 mg) or iron oxide (1 mg). Phosphate-buffered saline (PBS, 100 μL) or the PBS containing INS (10 μg) was added dropwise to the chloroform polymer solution while vortexing and homogenized using an IKA T25 Digital Ultra-Turrax (IKA). This dispersant phase was then added dropwise to a continuous phase of 5% PVA and homogenized. The mixture was then added dropwise to 200 mL of 0.2% PVA and left stirring for 2 h to evaporate the solvent. NPs were collected by centrifugation at 12,000 rpm for 20 min at 4° C. and then washed 3 times with deionized water. The particles were lyophilized and stored at −20° C. The hydrodynamic diameter and surface charge of NPs were measured by a Malvern Zetasizer. A dispersion of NPs was filtrated through a 0.45 μm Millipore filter into cuvettes prior to the measurements. […] The morphology of the NPs was observed by Hitachi S-4800 High Resolution scanning electron microscopy (SEM, Norcross). A dispersion of NPs in ethanol (2 μL) was placed on the wafer substrate and dried at room temperature. The sample was mounted on the aluminum sample holder and then gold sputtered. […] NPs were dispersed in the media (citrate buffer solution, pH 2.0) at 37° C. in the presence of pepsin (10 mg/mL). At each time point, NPs were centrifuged, and supernatant was collected to measure the amount of DIR released from the particles using a plate reader (λex 750 nm, λem 790 nm, SpectraMax M5, Molecular Devices). Insulin release was quantified by the BCA assay.

[2] = Biodistribution and clearance of dye-loaded NPs after oral gavage; assay type: in vivo, mice; conditions: pancreas
Experimental: B6, NOD, or Nude mice were fasted for 4 h and treated with DIR- or coumarin 6-encapsulating NPs by oral gavage (50, 100, or 500 mg/kg, 250 μL). Free DIR or coumarin 6 (solubilized with 1% Tween 20) served as controls. […] Fluorescence data was fit to the one component exponential decay model: Y=Yf+(Yo−e^−kt).
Biodistribution in animals was conducted using fluorescent dye loaded pBA NPs. Animals were first fasted for 4 h prior to the experiment then orally gavaged with the NP formulations in saline followed by resumption of normal food and water. At 4 h post gavage, animals were euthanized, and organs were harvested to be fluorescently imaged. Quantitative fluorescence was conducted with a multispectral imaging platform (Bruker multispectral MS FX PRO imaging system).

rat microglia = conditions: cited from earlier work
[3] = test system: fibroblasts from patients with either sporadic or familial Alzheimer's disease; conditions: cited from earlier work
[4] = test system: mouse pancreatic β cell line (MIN6); experiment: Insulin production from pancreatic β cells (MIN6) by TGR5 activation; assay type: cell-based; conditions: 40 μg/mL, 25 mM glucose, compared with PLGA particles
Experimental: Concentration of insulin was measured using an Ultrasensitive Insulin ELISA kit (ALPCO). […] The pAkt production from CHO cells incubated with fresh or denatured insulin was compared to calculate percent bioactivity.
Concentration of insulin was measured using an Ultrasensitive Insulin ELISA kit (ALPCO).

[5] = cited from earlier work

- Loading of agent [1]: 6.7 μg per mg of particles
- ΔY (Final-Initial) [2]: 1.42 % Initial Dose/cm^3
- k (clearance rate) ([2]; one phase decay fit): ~0.01 h⁻¹
Compound: CCCCCCCCCCCCCCCCCCN1C(=CC=CC=CC=CC2=[N+](CCCCCCCCCCCCCCCCCC)c3ccccc3C2(C)C)C(C)(C)c2ccccc21.[I-] [DIR, 1,1′-dioctadecyl-3,3,3′,3′-tetramethylindotricarbocyanine iodide]

Compound: CC(CCC(=O)O)C1CC[C@H]2[C@@H]3[C@@H](O)C[C@@H]4C[C@H](O)CC[C@]4(C)[C@H]3CC[C@]12C (stereo partly shown) [UDCA, urso-deoxycholic acid]
- effect on IL-1β, nitric oxide, TNF-α (rat microglia): reduce IL-1β and nitric oxide, and downregulate TNF-α
- effect on mitochondrial function and Drp1 [3]: improve mitochondrial function and redistributes Drp1
- insulin secretion from pancreatic β cells [4]: able to induce insulin secretion

- Loading of agent [1]: 84.3 μg per mg of particles
Compound: CCN(CC)c1ccc2cc(-c3nc4ccccc4s3)c(=O)oc2c1 [coumarin 6]
- Log P [5]: 1.8

Compound: insulin
- Loading of agent [1]: 0.02 μg per mg of particles
- loading of INS in pUDCA NPs [1]: approximately 20 ng/mg of NP
